Measurements: patent US20230096145A1, “METHODS OF CONTROLLING OR PREVENTING INFESTATION OF PLANTS BY THE PHYTOPATHOGENIC MICROORGANISM CORYNESPORA CASSIICOLA” (SYNGENTA CROP PROTECTION AG, priority 2020, published 2023)

Test system: Corynespora cassiicola
Test: Corynespora cassiicola liquid culture growth inhibition (microtiter plate, PDB)
Assay type: cell-based
Conditions: compared to untreated control, photometric at 620 nm after 3-4 days at 24 C
Experimental: Conidia of the fungus from cryogenic storage were directly mixed into nutrient broth (PDB potato dextrose broth). A DMSO solution of the test compounds was placed into a microtiter plate (96-well format) and the nutrient broth containing the fungal spores was added to it. The test plates were incubated at 24 C and the inhibition of growth (% control of Corynespora cassiicola) was determined photometrically after 3-4 days at 620 nm. The activity of a compound is derived by comparing the inhibition of growth in the treated test solution to the growth in the untreated check. The concentration of the compounds was 6.7, 2.2, 0.74, 0.25, 0.082 and 0.027 ppm.

Q: For Cc1ccc2c(C3=NC(C)(C)C(F)(F)c4ccccc43)cnn2c1C [Compound 1], which inhibition at 6.7 ppm is on record?
A: Its inhibition at 6.7 ppm is at least 70%.

Q: With Cc1cccc2c(C3=NC(C)(C)C(F)(F)c4ccccc43)cnn12 [Compound 2] as the compound, how does the inhibition at 6.7 ppm read?
A: The inhibition at 6.7 ppm was at least 70%.

Q: Cc1ccc2c(C3=NC(C)(C)C(F)(F)c4ccccc43)cnn2c1 [Compound 3] was tested. Which inhibition at 6.7 ppm did it give?
A: Its inhibition at 6.7 ppm is at least 70%.

Q: Cc1ccc2c(C3=NC(C)(C)C(F)(F)c4c(F)cccc43)cnn2c1C [Compound 4] was tested. Which inhibition at 6.7 ppm did it give?
A: Its inhibition at 6.7 ppm is at least 70%.

Q: For Cc1ccc2c(C3=NC(C)(C)C(F)(F)c4cc(F)ccc43)cnn2c1C [Compound 5], which inhibition at 6.7 ppm is on record?
A: Its inhibition at 6.7 ppm is at least 70%.
